Experimental data taken from BindingDB's records for doi:10.1038/sj.bjp.0702059 (Smithkline Beecham Pharmaceuticals, 1998).

Assays:
[1] = biological target: 5-hydroxytryptamine receptor 1E (Homo sapiens, UniProt P28566)
[2] = biological target: 5-hydroxytryptamine receptor 7 (Homo sapiens, UniProt P34969)
[3] = biological target: 5-hydroxytryptamine receptor 2A (Homo sapiens, UniProt P28223)
[4] = biological target: 5-hydroxytryptamine receptor 6 (Homo sapiens, UniProt P50406)
[5] = biological target: 5-hydroxytryptamine receptor 4 (Homo sapiens, UniProt Q13639)
[6] = biological target: 5-hydroxytryptamine receptor 2B (Homo sapiens, UniProt P41595)
[7] = biological target: T1, 5-hydroxytryptamine receptor 1F (Homo sapiens, UniProt P30939)
T1 sequence (P30939 whole entry): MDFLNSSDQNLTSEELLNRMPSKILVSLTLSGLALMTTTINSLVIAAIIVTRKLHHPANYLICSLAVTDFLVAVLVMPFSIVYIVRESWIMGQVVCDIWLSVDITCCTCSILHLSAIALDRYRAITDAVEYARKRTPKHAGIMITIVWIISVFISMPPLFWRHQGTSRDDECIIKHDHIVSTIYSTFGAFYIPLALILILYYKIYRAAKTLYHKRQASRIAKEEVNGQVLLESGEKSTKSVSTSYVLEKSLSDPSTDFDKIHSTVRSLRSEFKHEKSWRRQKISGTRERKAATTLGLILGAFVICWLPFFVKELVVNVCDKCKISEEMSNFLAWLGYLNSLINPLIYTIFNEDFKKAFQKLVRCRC

[8] = biological target: 5-hydroxytryptamine receptor 1B (Homo sapiens, UniProt P28222)
Chain of 5-hydroxytryptamine receptor 1B (P28222 whole entry): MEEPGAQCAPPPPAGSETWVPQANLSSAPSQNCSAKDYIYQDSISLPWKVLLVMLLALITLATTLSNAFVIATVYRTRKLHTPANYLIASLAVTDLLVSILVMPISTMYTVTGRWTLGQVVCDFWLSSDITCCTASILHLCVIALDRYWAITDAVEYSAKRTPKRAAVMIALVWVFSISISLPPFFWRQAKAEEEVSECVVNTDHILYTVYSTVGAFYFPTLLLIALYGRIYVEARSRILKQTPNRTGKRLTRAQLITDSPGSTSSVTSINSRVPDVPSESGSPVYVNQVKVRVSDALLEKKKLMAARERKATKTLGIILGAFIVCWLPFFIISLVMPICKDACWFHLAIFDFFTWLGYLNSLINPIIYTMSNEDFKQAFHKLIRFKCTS

Chain of 5-hydroxytryptamine receptor 2A (P28223 whole entry): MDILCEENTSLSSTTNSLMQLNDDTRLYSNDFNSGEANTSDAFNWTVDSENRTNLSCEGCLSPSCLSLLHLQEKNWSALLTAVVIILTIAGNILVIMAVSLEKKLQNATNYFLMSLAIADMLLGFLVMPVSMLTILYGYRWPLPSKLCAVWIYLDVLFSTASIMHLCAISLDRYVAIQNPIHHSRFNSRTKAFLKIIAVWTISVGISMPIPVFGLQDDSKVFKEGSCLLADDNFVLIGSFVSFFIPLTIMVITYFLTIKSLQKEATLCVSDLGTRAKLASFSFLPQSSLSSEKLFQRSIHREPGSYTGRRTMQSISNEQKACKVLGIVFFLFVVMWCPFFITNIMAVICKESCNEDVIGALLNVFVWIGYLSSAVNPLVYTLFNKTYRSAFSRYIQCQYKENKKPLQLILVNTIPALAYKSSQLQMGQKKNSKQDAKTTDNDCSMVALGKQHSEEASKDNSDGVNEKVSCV
Chain of 5-hydroxytryptamine receptor 6 (P50406 whole entry): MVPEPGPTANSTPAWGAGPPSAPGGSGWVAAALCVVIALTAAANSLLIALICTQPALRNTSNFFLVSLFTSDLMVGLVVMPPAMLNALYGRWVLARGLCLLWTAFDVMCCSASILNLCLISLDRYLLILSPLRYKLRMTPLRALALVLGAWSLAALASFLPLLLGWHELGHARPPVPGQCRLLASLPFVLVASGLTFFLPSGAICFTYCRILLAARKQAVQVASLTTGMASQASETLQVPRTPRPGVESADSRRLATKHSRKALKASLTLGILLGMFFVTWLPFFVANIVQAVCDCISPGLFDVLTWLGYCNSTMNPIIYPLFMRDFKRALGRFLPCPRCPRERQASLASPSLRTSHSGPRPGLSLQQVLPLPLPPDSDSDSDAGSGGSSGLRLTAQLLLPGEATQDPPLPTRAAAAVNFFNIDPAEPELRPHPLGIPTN
Chain of 5-hydroxytryptamine receptor 2B (P41595 whole entry): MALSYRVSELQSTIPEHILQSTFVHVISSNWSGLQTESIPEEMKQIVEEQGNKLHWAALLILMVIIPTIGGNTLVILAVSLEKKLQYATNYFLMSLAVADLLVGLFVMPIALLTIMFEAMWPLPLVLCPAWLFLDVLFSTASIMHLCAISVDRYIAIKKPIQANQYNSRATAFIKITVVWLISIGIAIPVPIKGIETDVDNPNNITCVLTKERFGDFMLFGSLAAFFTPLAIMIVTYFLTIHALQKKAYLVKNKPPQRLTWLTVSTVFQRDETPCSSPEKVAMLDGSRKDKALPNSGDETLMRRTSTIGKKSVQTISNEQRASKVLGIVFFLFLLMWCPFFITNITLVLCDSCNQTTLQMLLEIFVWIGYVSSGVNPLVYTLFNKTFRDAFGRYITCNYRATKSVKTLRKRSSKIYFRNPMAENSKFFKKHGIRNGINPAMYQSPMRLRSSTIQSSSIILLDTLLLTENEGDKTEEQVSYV
Chain of 5-hydroxytryptamine receptor 1E (P28566 whole entry): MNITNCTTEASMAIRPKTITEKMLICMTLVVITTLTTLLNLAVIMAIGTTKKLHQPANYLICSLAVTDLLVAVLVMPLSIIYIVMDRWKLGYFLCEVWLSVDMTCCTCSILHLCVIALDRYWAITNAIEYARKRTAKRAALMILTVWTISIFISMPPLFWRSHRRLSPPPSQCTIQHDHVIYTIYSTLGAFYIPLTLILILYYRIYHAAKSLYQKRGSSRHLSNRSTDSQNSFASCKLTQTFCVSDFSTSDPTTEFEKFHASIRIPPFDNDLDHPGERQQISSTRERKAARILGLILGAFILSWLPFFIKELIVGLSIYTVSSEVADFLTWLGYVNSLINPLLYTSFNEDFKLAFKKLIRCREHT
Chain of 5-hydroxytryptamine receptor 7 (P34969 whole entry): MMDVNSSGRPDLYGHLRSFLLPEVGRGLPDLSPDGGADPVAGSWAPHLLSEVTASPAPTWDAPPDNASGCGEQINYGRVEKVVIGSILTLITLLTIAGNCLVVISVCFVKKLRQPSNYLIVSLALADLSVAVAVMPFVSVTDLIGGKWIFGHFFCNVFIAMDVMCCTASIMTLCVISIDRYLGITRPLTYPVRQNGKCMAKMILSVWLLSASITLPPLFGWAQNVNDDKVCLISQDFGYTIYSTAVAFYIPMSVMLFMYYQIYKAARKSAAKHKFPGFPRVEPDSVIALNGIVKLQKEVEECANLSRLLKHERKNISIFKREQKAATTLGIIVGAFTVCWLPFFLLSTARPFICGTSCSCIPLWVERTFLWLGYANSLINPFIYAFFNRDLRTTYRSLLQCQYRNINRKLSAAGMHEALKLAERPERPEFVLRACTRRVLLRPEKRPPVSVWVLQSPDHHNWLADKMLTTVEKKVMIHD
Chain of 5-hydroxytryptamine receptor 4 (Q13639 whole entry): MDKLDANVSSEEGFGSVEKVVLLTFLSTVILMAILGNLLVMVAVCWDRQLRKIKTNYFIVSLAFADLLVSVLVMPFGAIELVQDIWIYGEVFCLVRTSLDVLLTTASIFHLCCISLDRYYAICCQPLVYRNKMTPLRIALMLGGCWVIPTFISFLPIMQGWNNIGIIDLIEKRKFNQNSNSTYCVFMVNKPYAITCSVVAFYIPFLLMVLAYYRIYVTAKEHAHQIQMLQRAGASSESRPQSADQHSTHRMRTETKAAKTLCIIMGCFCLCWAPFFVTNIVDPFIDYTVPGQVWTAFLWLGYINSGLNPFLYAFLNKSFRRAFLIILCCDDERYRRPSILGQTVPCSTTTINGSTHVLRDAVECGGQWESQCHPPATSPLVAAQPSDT

Compound	Ki [1] [nM]	Ki [2] [nM]	Ki [3] [nM]	Ki [4] [nM]	Ki [5] [nM]	Ki [6] [nM]	Ki [7] [nM]	Ki [8] [nM]
Cc1nc(-c2ccc(-c3ccc(C(=O)N4CCc5cc6c(cc54)C4(CCN(C)CC4)CO6)cc3)c(C)c2)no1 [4-[2-methyl-4-(5-methyl-1,2,4-oxadiazol-3-yl)phenyl]phenyl-1'-methylspiro[3,5,6,7-tetrahydro-2H-furo[2,3-f]indole-3,4'-(hexahydropyridine)]-5-ylmethanone]	> 10000	1000	1200	2140	2040	3160	> 10000	
COc1ccc(NC(=O)c2ccc(-c3ccc(-c4noc(C)n4)cc3C)cc2)cc1N1CCN(C)CC1 [SMR001230745]								0.93
